From paper PMC5220080, “Modulating Beta-Cardiac Myosin Function at the Molecular and Tissue Levels” (Frontiers in Physiology, 2017)

Tests used:
[1] = target: T1, human beta-cardiac myosin subfragment 1 (M2β-S1) (Homo sapiens, UniProt P12883); test: stopped-flow mant fluorescence, release from acto-M2β-S1 on mixing with ATP (rate constant without pN-Bleb); type: binding; design: gene MYH7; subfragment 1, amino acids 1–843, N-terminal FLAG tag, C-terminal Avi tag; with actin; details: read-out: stopped-flow mant fluorescence, release from acto-M2β-S1 on mixing with ATP (rat)
[2] = target: T1, human beta-cardiac myosin subfragment 1 (M2β-S1); test: actin-activated ATPase (NADH-linked assay); also in vitro motility (IC50 […]); type: biochemical; design: gene MYH7; subfragment 1, amino acids 1–843, N-terminal FLAG tag, C-terminal Avi tag
[3] = target: T2, skeletal muscle heavy meromyosin (Sk HMM); test: as above; type: biochemical
T2 construct: heavy meromyosin, prepared from rabbit psoas muscle (Results text says chicken)

T1 sequence (P12883 1-843): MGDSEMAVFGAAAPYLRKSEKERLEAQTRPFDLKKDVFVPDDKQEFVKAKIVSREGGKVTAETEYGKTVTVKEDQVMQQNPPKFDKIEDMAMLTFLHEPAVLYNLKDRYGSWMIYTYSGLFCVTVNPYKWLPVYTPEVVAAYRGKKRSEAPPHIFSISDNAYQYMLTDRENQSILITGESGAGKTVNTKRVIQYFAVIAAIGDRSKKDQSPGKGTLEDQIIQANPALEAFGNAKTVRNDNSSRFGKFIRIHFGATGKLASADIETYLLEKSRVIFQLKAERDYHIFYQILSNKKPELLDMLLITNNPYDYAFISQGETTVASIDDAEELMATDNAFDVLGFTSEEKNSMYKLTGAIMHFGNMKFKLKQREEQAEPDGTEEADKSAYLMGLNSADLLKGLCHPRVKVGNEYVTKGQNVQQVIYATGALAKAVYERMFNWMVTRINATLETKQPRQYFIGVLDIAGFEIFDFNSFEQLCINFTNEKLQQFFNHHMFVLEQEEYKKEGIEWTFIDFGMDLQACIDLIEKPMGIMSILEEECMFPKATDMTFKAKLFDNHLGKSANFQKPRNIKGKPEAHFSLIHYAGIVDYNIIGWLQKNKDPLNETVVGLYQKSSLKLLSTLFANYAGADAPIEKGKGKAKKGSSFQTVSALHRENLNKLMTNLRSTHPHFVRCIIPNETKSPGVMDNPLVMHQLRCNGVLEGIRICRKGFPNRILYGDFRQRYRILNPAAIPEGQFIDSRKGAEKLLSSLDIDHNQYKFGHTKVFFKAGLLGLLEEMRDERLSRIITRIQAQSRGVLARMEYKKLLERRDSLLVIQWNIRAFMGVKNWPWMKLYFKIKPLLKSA

Row | koff [1] | IC50 [2] | IC50 [3] | Structure (SMILES)
1 | 229 ± 6.5 s⁻¹ | – | – | CNc1ccccc1C(=O)O[C@H]1C[C@H](n2cnc3c(N)ncnc32)O[C@@H]1COP(=O)(O)OP(=O)(O)O
2 | – | 12.3 ± 1.8 µM | 0.43 ± 0.11 µM | Cc1ccc2c(c1)C(=O)[C@]1(O)CCN(c3ccc([N+](=O)[O-])cc3)C1=N2 [pN-Bleb, para-Nitroblebbistatin]
